The source made the active and inactive calls. The calls are words filed in the database; no cut-off is given here.
Legend:
[1] = target: T1, Alpha-1A adrenergic receptor (Homo sapiens, UniProt P35348); assay: biochemical
T1 sequence (P35348 whole entry): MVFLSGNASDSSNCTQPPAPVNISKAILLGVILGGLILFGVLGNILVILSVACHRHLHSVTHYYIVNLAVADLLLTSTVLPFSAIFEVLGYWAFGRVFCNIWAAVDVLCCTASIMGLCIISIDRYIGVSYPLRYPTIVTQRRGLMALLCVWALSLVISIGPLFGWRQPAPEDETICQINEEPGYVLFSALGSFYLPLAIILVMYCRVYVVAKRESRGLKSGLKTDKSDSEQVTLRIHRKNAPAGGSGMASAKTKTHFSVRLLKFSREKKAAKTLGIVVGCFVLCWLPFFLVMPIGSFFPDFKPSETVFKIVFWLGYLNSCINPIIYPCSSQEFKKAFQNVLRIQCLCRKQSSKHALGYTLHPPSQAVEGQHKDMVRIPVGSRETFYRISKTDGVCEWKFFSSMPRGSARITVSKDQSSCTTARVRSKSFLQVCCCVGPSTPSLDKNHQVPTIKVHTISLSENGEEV
Description: Displacement of [3H]Prazosin from human recombinant alpha 1A adrenergic receptor expressed in CHO cells incubated for 30 mins by radioligand competition binding assay

[2] = target: T2, Alpha-1D adrenergic receptor (Homo sapiens, UniProt P25100); assay: biochemical
T2 sequence (P25100 whole entry): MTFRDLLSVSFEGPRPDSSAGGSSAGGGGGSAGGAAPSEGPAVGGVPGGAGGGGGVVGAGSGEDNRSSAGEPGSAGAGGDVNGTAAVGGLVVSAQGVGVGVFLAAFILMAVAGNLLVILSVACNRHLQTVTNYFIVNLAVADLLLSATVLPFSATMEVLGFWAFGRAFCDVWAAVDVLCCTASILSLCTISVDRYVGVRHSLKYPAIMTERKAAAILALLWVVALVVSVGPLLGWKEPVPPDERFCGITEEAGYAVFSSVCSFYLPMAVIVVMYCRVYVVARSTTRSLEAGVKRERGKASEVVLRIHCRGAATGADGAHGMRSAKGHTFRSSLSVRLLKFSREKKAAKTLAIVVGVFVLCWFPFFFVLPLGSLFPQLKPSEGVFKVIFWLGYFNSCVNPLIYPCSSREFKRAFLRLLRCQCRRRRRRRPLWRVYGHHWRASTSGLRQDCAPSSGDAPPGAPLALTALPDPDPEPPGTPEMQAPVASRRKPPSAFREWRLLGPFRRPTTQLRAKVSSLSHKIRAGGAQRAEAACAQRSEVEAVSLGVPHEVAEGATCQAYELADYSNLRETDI
Description: Displacement of [3H]Prazosin from human recombinant alpha 1D adrenergic receptor expressed in CHO cells incubated for 30 mins by radioligand competition binding assay

[3] = target: T3, 5-hydroxytryptamine receptor 1A (Homo sapiens) (UniProt P08908); assay: Agonist activity at cloned human 5-HT1A receptor transfected in human HeLa cell membranes preincubated for 20 mins followed by [35S]GTPgammaS addition and measured after 30 mins by liquid scintillation counting relative to 8-OH-DPAT; type: functional
T3 sequence (whole entry): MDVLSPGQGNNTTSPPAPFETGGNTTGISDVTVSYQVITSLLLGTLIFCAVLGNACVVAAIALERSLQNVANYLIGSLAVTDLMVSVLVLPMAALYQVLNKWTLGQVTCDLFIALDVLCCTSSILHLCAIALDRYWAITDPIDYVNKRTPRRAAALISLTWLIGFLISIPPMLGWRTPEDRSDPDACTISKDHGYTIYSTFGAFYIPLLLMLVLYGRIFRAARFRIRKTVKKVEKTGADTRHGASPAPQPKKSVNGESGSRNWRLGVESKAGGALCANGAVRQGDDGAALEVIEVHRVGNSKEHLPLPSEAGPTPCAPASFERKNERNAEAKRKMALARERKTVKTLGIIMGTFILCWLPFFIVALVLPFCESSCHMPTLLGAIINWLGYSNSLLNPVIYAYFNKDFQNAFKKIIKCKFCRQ

[4] = target: T3, 5-hydroxytryptamine receptor 1A (Homo sapiens); assay: Agonist activity at cloned human 5-HT1A receptor transfected in human HeLa cell membranes assessed as stimulation of [35S]GTPgammaS binding preincubated for 20 mins followed by [35S]GTPgammaS addition and measured after 30 mins by liquid scintillation counting; type: functional
[5] = target: T4, 5-hydroxytryptamine receptor 1A (Homo sapiens, UniProt P08908); assay: biochemical
T4 sequence (P08908 whole entry): T3 sequence (whole entry)

[6] = target: T5, Alpha-1B adrenergic receptor (Homo sapiens, UniProt P35368); assay: biochemical
T5 sequence (P35368 whole entry): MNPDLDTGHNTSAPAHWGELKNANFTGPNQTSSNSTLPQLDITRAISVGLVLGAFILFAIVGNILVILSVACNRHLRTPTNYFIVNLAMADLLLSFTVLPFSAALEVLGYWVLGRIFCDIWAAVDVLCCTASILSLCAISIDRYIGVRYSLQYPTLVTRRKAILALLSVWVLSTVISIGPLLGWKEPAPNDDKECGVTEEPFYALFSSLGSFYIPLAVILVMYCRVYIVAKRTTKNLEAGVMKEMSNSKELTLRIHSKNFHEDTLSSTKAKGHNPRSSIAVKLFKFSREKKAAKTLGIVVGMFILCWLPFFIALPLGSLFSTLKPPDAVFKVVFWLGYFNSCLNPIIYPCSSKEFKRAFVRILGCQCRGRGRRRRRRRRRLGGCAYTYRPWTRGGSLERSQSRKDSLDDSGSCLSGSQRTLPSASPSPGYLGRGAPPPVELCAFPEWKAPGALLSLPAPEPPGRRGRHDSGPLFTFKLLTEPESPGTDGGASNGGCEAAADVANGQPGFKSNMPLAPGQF
Description: Displacement of [3H]Prazosin from human recombinant alpha 1B adrenergic receptor expressed in CHO cells incubated for 30 mins by radioligand competition binding assay

[7] = (§1) Growth inhibition of human fibroblast cells incubated for 48 hrs by SRB assay; type: cell-based; details: human fibroblast cells
Fibroblast = assay: as §1; type: cell-based; details: fibroblast, 48 h
PC-3 [8] = assay: Growth inhibition of human PC3 cells incubated for 48 hrs by SRB assay; type: functional; details: PC-3, 48 h; for CC50: read-out: LC50 (the source's name)
DU-145 [9] = assay: Growth inhibition of human DU145 cells incubated for 48 hrs by SRB assay; type: functional; details: DU-145, 48 h; for CC50: read-out: LC50 (the source's name)
D(3) dopamine receptor = D(3) dopamine receptor (Homo sapiens, UniProt P35462); assay: Displacement of [3H]N-methylspiperone from human dopamine D3 receptor expressed in HEK293 cell membranes incubated for 1 hr by liquid scintillation counting
[10] = target: T3, 5-hydroxytryptamine receptor 1A (Homo sapiens); details: HeLa
Description: Antagonist activity at cloned human 5-HT1A receptor transfected in human HeLa cell membranes preincubated for 20 mins followed by [35S]GTPgammaS addition and measured after 30 mins by liquid scintillation counting

D(4) dopamine receptor = target: T6, D(4) dopamine receptor (Homo sapiens, UniProt P21917); assay: Displacement of [3H]N-methylspiperone from human dopamine D4 receptor expressed in HEK293 cell membranes incubated for 1 hr by liquid scintillation counting
T6 sequence (P21917 whole entry): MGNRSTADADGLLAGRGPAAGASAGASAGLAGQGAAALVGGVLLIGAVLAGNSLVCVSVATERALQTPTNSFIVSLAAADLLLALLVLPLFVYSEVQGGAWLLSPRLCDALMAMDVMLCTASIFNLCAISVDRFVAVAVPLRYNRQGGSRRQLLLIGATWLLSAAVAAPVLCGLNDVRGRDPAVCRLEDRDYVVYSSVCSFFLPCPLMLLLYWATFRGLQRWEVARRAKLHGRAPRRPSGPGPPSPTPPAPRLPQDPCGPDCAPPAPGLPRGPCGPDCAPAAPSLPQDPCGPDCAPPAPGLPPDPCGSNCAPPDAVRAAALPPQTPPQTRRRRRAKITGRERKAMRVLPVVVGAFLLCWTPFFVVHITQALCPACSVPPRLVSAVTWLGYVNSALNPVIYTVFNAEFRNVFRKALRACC

D(2) dopamine receptor = D(2) dopamine receptor (Homo sapiens, UniProt P14416); assay: Displacement of [3H]N-methylspiperone from human dopamine D2 receptor expressed in HEK293 cell membranes incubated for 1 hr by liquid scintillation counting
PC-3 [11] = assay: Inhibition of norepinephrine-stimulated human PC3 cells proliferation at 5 to 10 uM incubated for 48 hrs by SRB assay; type: functional, cell-based
DU-145 [12] = assay: Inhibition of norepinephrine-stimulated human DU145 cells proliferation at 5 to 10 uM incubated for 48 hrs by SRB assay; type: functional, cell-based
PC-3 [13] = assay: Inhibition of 5-HT-stimulated human PC3 cells proliferation at 5 to 10 uM incubated for 48 hrs by SRB assay; type: functional, cell-based
DU-145 [14] = assay: Inhibition of 5-HT-stimulated human DU145 cells proliferation at 5 to 10 uM incubated for 48 hrs by SRB assay; type: functional, cell-based

Chain of D(3) dopamine receptor (P35462 whole entry): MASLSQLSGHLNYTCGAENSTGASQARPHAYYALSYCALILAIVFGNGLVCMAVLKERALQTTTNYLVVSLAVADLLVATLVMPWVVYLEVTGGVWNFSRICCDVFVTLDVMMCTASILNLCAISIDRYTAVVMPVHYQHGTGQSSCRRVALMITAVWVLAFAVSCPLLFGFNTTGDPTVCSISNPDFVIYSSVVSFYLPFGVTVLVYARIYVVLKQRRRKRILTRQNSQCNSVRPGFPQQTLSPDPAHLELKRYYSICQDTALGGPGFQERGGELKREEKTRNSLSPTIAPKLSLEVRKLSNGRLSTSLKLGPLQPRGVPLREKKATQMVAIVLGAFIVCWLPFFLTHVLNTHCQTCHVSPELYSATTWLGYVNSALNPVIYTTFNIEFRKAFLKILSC
Chain of D(2) dopamine receptor (P14416 whole entry): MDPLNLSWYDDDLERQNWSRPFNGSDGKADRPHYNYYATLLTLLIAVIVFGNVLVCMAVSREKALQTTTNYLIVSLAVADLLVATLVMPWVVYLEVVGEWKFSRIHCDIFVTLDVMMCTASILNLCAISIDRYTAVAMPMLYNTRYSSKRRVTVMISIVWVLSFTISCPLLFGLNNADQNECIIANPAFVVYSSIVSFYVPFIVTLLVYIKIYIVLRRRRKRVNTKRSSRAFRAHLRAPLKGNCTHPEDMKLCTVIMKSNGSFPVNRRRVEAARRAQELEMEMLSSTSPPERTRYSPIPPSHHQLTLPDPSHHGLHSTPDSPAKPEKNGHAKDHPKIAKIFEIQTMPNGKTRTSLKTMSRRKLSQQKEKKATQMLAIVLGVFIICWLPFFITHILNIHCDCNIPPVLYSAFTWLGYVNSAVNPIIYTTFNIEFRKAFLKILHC

SMILES	Ki [1] [µM]	Ki [2] [µM]	Ki [5] [µM]	Ki [6] [µM]	also measured
c1ccc(OCCNCC2OCCOC2(c2ccccc2)c2ccccc2)cc1 (stereo not drawn)	> 1	0.316	0.0282	> 1	Emax [3]: 32.9%; pD2 [4]: 6.71
COc1ccccc1OCCNCC1COCC(c2ccccc2)(c2ccccc2)O1 (stereo not drawn)	–	–	–	–	GI50 at 48 h [7]: 38.4 µM; LC50 (Fibroblast): > 300 µM; TGI (Fibroblast): 121.6 µM; pD2 [4]: 9.4; GI50 (PC-3 [8]): 26 µM; TGI (PC-3 [8]): 64 µM; CC50 (PC-3 [8]): 157 µM; GI50 (DU-145 [9]): 23 µM; TGI (DU-145 [9]): 42 µM; CC50 (DU-145 [9]): 77 µM
COc1ccccc1N1CCN(C[C@H]2OCCO[C@H]2c2ccccc2)CC1 (relative stereo)	> 1	0.191	0.0708	> 1	–
COc1ccccc1N1CCN(C[C@H]2OCCOC2(c2ccccc2)c2ccccc2)CC1	0.355	0.0891	0.012	0.38	Ki (D(3) dopamine receptor): 2.88 µM; GI50 at 48 h [7]: > 300 µM; LC50 (Fibroblast): > 300 µM; TGI (Fibroblast): > 300 µM; pKb [10]: 8.14; Ki (D(4) dopamine receptor): 9.77 µM; GI50 (PC-3 [8]): 25 µM; TGI (PC-3 [8]): 78 µM; CC50 (PC-3 [8]): 240 µM; Ki (D(2) dopamine receptor): 2.19 µM; GI50 (DU-145 [9]): 35 µM; TGI (DU-145 [9]): 80 µM; CC50 (DU-145 [9]): 180 µM
COc1ccccc1N1CCN(CC2(c3ccccc3)COCCO2)CC1 (stereo not drawn)	> 1	> 1	0.174	> 1	–
COc1ccccc1N1CCN(C[C@H]2OCCO[C@@H]2c2ccccc2)CC1 (relative stereo)	> 1	0.0537	0.214	> 1	–
c1ccc(OCCNC[C@H]2OCCO[C@@H]2c2ccccc2)cc1 (relative stereo)	> 1	> 1	0.055	> 1	–
COc1ccccc1OCCNCC1(c2ccccc2)COCCO1 (stereo not drawn)	> 1	0.0692	0.0759	> 1	–
COc1ccccc1N1CCN(CC2COCC(c3ccccc3)(c3ccccc3)O2)CC1 (stereo not drawn)	0.00263	0.00174	0.00501	0.0229	Ki (D(3) dopamine receptor): 0.257 µM; Ki (D(4) dopamine receptor): 1.38 µM; Emax [3]: 39.3%; pD2 [4]: 7.01; Ki (D(2) dopamine receptor): 0.112 µM
COc1ccccc1OCCNC[C@H]1OCCO[C@H]1c1ccccc1 (relative stereo)	> 1	0.126	0.0204	> 1	Emax [3]: 24.3%; pD2 [4]: 7.13
COc1ccccc1OCCNCC1OCCOC1(c1ccccc1)c1ccccc1 (stereo not drawn)	> 1	0.00741	0.00398	0.0676	inhibition (PC-3 [11]): Active; inhibition (DU-145 [12]): Active; Ki (D(3) dopamine receptor): 0.537 µM; inhibition (PC-3 [13]): Active; GI50 at 48 h [7]: 30.5 µM; LC50 (Fibroblast): 99.6 µM; TGI (Fibroblast): 50.2 µM; pKb [10]: 8.5; Ki (D(4) dopamine receptor): 0.275 µM; inhibition (DU-145 [14]): Active; GI50 (PC-3 [8]): 13 µM; TGI (PC-3 [8]): 29 µM; CC50 (PC-3 [8]): 68 µM; Ki (D(2) dopamine receptor): 0.324 µM; GI50 (DU-145 [9]): 18 µM; TGI (DU-145 [9]): 32 µM; CC50 (DU-145 [9]): 55 µM
c1ccc(OCCNC[C@H]2OCCO[C@H]2c2ccccc2)cc1 (relative stereo)	> 1	> 1	0.214	> 1	–
COc1cccc(OC)c1OCCNCC1OCCOC1(c1ccccc1)c1ccccc1 (stereo not drawn)	> 1	> 1	0.0661	> 1	–
COc1cccc(OC)c1OCCNC[C@H]1OCCO[C@@H]1c1ccccc1 (relative stereo)	> 1	> 1	0.0977	> 1	–
COc1cccc(OC)c1OCCNC[C@H]1OCCO[C@H]1c1ccccc1 (relative stereo)	> 1	> 1	0.182	> 1	–
c1ccc(OCCNCC2(c3ccccc3)COCCO2)cc1 (stereo not drawn)	> 1	> 1	0.269	> 1	–
COc1cccc(OC)c1OCCNCC1(c2ccccc2)COCCO1 (stereo not drawn)	> 1	> 1	> 1	> 1	–
COc1ccccc1OCCNC[C@H]1OCCO[C@@H]1c1ccccc1 (relative stereo)	> 1	0.0955	0.00955	> 1	pKb [10]: 8.2

Reference: ChEMBL document CHEMBL4390666, “Chemical manipulations on the 1,4-dioxane ring of 5-HT1A receptor agonists lead to antagonists endowed with antitumor activity in prostate cancer cells” (Eur J Med Chem, 2019)
